The source of these data is article PMC7531004, “Discovery of gramicidin A analogues with altered activities by multidimensional screening of a one-bead-one-compound library” (Nature Communications, 2020).

Where a SMILES comes first, the peptide text is derived from it. [ ]: non-standard residue; d: D form. The star is where a group is joined. NHCH2CH2OH = OCCN*; For = O=C*

Data set [1] is described as follows: H+/Na+ transport assay of bead-derived peptides (one-point).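 Also: relative to parent gramicidin A activity set to 1.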 The data set is classed as biochemical. Conditions: bead-derived peptide solution, EYPC/EYPG LUVs. Set-up: key: relative activity; mean of two control wells = 1.00. The gist of the method: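 Values are normalized fluorescence, with Triton X-100 defining 100% and untreated LUVs 0%, and the two control wells averaging 1.00. Vesicles carried 1.0 mM pyranine and included egg yolk phosphatidylglycerol. Peptides were incubated with them 30 min at room temperature.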

The test system of data set [2] is P388 mouse leukemia cells. Conditions: 92 h. The method, boiled down: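 P388 cells at 1 × 10^4 cells/mL (final) were exposed to library peptides (stocks diluted 250-fold in RPMI1640/10% FBS) for 92 h at 37 °C, 5% CO2. Viable cells were counted by WST-1/1-methoxy PMS (4 h), absorbance 415 nm, and expressed as cell viability (%).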
For data set [3], the system named is Streptococcus pyogenes SSI-9. Briefly: Antibacterial activity assay of bead-derived peptides (three concentrations). It counts as cell-based. The settings on record: S. pyogenes, bead-derived peptide solution, three concentrations. Set-up: key: +++: inhibition by the 640-fold diluted peptide solution; ++: inhibition by the 160-fold diluted solution; +: inhibition by the 40-fold diluted solution; -: no inhibition. The gist of the method: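 Undiluted, 4-fold and 16-fold DMSO-diluted peptide stocks; S. pyogenes SSI-9, 2 × 10^5 CFU, cation-adjusted MHB (50 mg/L Ca2+, 25 mg/L Mg2+) + 5% laked horse blood; 37 °C, 18 h; readout = cell pellet visible or not.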

As to `CC(C)C[C@@H](NC(=O)[C@H](C)NC(=O)CNC(=O)[C@@H](NC=O)C(C)C)C(=O)N[C@@H](C)C(=O)N[C@H](CC(C)C)C(=O)N[C@H](C(=O)N[C@H](CC(C)C)C(=O)N[C@@H](Cc1c[nH]c2ccccc12)C(=O)N[C@H](CC(C)C)C(=O)N[C@@H](Cc1c[nH]c2ccccc12)C(=O)N[C@H](CC(C)C)C(=O)N[C@@H](Cc1c[nH]c2ccccc12)C(=O)N[C@@H](C(=O)N[C@@H](Cc1c[nH]c2ccccc12)C(=O)NCCO)C(C)C)C(C)C` [compound 8635] (For-VGA[dL]A[dL]V[dL]W[dL]W[dL]W[dV]W-NHCH2CH2OH), the “H+/Na+ transport activity normalized against the value of 1 (1.00)” value (“H+/Na+ transport activity normalized” for short) in data set [1] is listed as 1.05. The cell viability/% in data set [2] worked out at 6.4%. Besides, the antibacterial activity result in data set [3] is “+”.

As to `CNC(=O)C[C@@H](NC(=O)[C@@H](NC(=O)[C@@H](CC(C)C)NC(=O)[C@H](C)NC(=O)[C@H](NC(=O)[C@H](C)NC(=O)CNC(=O)[C@@H](NC=O)C(C)C)C(C)C)C(C)C)C(=O)N[C@@H](Cc1c[nH]c2ccccc12)C(=O)N[C@@H](C(=O)N[C@@H](Cc1c[nH]c2ccccc12)C(=O)N[C@@H](C(=O)N[C@@H](Cc1c[nH]c2ccccc12)C(=O)N[C@@H](C(=O)N[C@@H](Cc1c[nH]c2ccccc12)C(=O)NCCO)C(C)C)C(C)C)C(C)C` [compound 8662] (For-VGA[dV]A[dL]V[dD](NHMe)W[dV]W[dV]W[dV]W-NHCH2CH2OH), the “H+/Na+ transport activity normalized” value in data set [1] is on record as 1.08. In data set [2], this compound displayed a cell viability/% of 61.0%. Besides, the antibacterial activity result in data set [3] is listed as “-”.

Regarding `CC(C)C[C@@H](NC(=O)[C@H](C)NC(=O)[C@H](NC(=O)[C@H](C)NC(=O)CNC(=O)[C@@H](NC=O)C(C)C)[C@H](C)O)C(=O)N[C@H](C(=O)N[C@@H](C(=O)N[C@@H](Cc1c[nH]c2ccccc12)C(=O)N[C@@H](C(=O)N[C@@H](Cc1c[nH]c2ccccc12)C(=O)N[C@H](CC(C)C)C(=O)N[C@@H](Cc1c[nH]c2ccccc12)C(=O)N[C@@H](C(=O)N[C@@H](Cc1c[nH]c2ccccc12)C(=O)NCCO)C(C)C)C(C)C)C(C)C)C(C)C` [compound 8687] (For-VGA[dT]A[dL]V[dV]W[dV]W[dL]W[dV]W-NHCH2CH2OH), in data set [1], the “H+/Na+ transport activity normalized” value stood at 1.15. This compound also came in with a cell viability/% in data set [2] of 66.9%. The antibacterial activity result in data set [3] was “-”.

On to `CC(C)C[C@@H](NC(=O)[C@H](C)NC(=O)[C@H](NC(=O)[C@H](C)NC(=O)CNC(=O)[C@@H](NC=O)C(C)C)C(C)C)C(=O)N[C@H](C(=O)N[C@@H](C(=O)N[C@@H](Cc1c[nH]c2ccccc12)C(=O)N[C@H](CC(C)C)C(=O)N[C@@H](Cc1c[nH]c2ccccc12)C(=O)N[C@@H](C(=O)N[C@@H](Cc1c[nH]c2ccccc12)C(=O)N[C@@H](C(=O)N[C@@H](Cc1c[nH]c2ccccc12)C(=O)NCCO)C(C)C)C(C)C)C(C)C)C(C)C` [compound 8697] (For-VGA[dV]A[dL]V[dV]W[dL]W[dV]W[dV]W-NHCH2CH2OH), for which, in data set [1], the “H+/Na+ transport activity normalized” value is recorded as 1.04. Moreover, the cell viability/% in data set [2] amounted to 100.0%. The antibacterial activity result in data set [3] was “+”.

Take `CC(C)C[C@@H](NC(=O)[C@H](C)NC(=O)CNC(=O)[C@@H](NC=O)C(C)C)C(=O)N[C@@H](C)C(=O)N[C@H](CC(C)C)C(=O)N[C@H](C(=O)N[C@H](CC(C)C)C(=O)N[C@@H](Cc1c[nH]c2ccccc12)C(=O)N[C@@H](C(=O)N[C@@H](Cc1c[nH]c2ccccc12)C(=O)N[C@@H](C(=O)N[C@@H](Cc1c[nH]c2ccccc12)C(=O)N[C@@H](C(=O)N[C@@H](Cc1c[nH]c2ccccc12)C(=O)NCCO)C(C)C)[C@H](C)O)C(C)C)C(C)C` [compound 8722] (For-VGA[dL]A[dL]V[dL]W[dV]W[dT]W[dV]W-NHCH2CH2OH): in data set [1], the “H+/Na+ transport activity normalized” value is recorded as 1.09. In data set [2], the cell viability/% worked out at 70.8%. The antibacterial activity entry in data set [3] was “-”.

`CC(C)C[C@@H](NC(=O)[C@H](C)NC(=O)[C@H](NC(=O)[C@H](C)NC(=O)CNC(=O)[C@@H](NC=O)C(C)C)C(C)C)C(=O)N[C@H](C(=O)N[C@@H](C(=O)N[C@@H](Cc1c[nH]c2ccccc12)C(=O)N[C@@H](C(=O)N[C@@H](Cc1c[nH]c2ccccc12)C(=O)N[C@H](CC(C)C)C(=O)N[C@@H](Cc1c[nH]c2ccccc12)C(=O)N[C@@H](C(=O)N[C@@H](Cc1c[nH]c2ccccc12)C(=O)NCCO)[C@H](C)O)C(C)C)C(C)C)C(C)C` [compound 8731] (For-VGA[dV]A[dL]V[dV]W[dV]W[dL]W[dT]W-NHCH2CH2OH): the “H+/Na+ transport activity normalized” value in data set [1] was determined as 1.05. The compound also came in with a cell viability/% in data set [2] of 71.2%. For the same compound, the antibacterial activity result in data set [3] is listed as “-”.

Consider `CNC(=O)C[C@@H](NC(=O)[C@@H](NC(=O)[C@H](NC(=O)[C@H](C)NC(=O)[C@@H](CC(C)C)NC(=O)[C@H](C)NC(=O)CNC(=O)[C@@H](NC=O)C(C)C)C(C)C)C(C)C)C(=O)N[C@@H](Cc1c[nH]c2ccccc12)C(=O)N[C@@H](C(=O)N[C@@H](Cc1c[nH]c2ccccc12)C(=O)N[C@H](CC(C)C)C(=O)N[C@@H](Cc1c[nH]c2ccccc12)C(=O)N[C@@H](C(=O)N[C@@H](Cc1c[nH]c2ccccc12)C(=O)NCCO)C(C)C)C(C)C` [compound 8732] (For-VGA[dL]A[dV]V[dD](NHMe)W[dV]W[dL]W[dV]W-NHCH2CH2OH), for which the “H+/Na+ transport activity normalized” value in data set [1] came out at 1.11. Moreover, the cell viability/% in data set [2] is reported as 72.4%. In data set [3], the antibacterial activity entry is “-”.

For the compound `CC(C)C[C@@H](NC(=O)[C@H](C)NC(=O)CNC(=O)[C@@H](NC=O)C(C)C)C(=O)N[C@@H](C)C(=O)N[C@H](CC(C)C)C(=O)N[C@H](C(=O)N[C@@H](C(=O)N[C@@H](Cc1c[nH]c2ccccc12)C(=O)N[C@@H](C(=O)N[C@@H](Cc1c[nH]c2ccccc12)C(=O)N[C@@H](C(=O)N[C@@H](Cc1c[nH]c2ccccc12)C(=O)N[C@@H](C(=O)N[C@@H](Cc1c[nH]c2ccccc12)C(=O)NCCO)C(C)C)[C@H](C)O)C(C)C)C(C)C)C(C)C` [compound 8749] (For-VGA[dL]A[dL]V[dV]W[dV]W[dT]W[dV]W-NHCH2CH2OH), the “H+/Na+ transport activity normalized” value in data set [1] came to 1.05. Also, the cell viability/% in data set [2] came to 62.2%. Further, the antibacterial activity result in data set [3] is “-”.

For `CC(C)C[C@@H](NC(=O)[C@H](C)NC(=O)[C@H](NC(=O)[C@H](C)NC(=O)CNC(=O)[C@@H](NC=O)C(C)C)C(C)C)C(=O)N[C@H](C(=O)N[C@@H](C(=O)N[C@@H](Cc1c[nH]c2ccccc12)C(=O)N[C@H](CC(C)C)C(=O)N[C@@H](Cc1c[nH]c2ccccc12)C(=O)N[C@@H](C(=O)N[C@@H](Cc1c[nH]c2ccccc12)C(=O)N[C@@H](C(=O)N[C@@H](Cc1c[nH]c2ccccc12)C(=O)NCCO)C(C)C)C(C)C)[C@H](C)O)C(C)C` [compound 8779] (For-VGA[dV]A[dL]V[dT]W[dL]W[dV]W[dV]W-NHCH2CH2OH), the “H+/Na+ transport activity normalized” value in data set [1] stood at 1.07. The same compound had a cell viability/% in data set [2] of 40.6%. The antibacterial activity result in data set [3] is reported as “-”.

Regarding `CC(C)C[C@@H](NC(=O)[C@H](C)NC(=O)CNC(=O)[C@@H](NC=O)C(C)C)C(=O)N[C@@H](C)C(=O)N[C@@H](C(=O)N[C@H](C(=O)N[C@H](CC(C)C)C(=O)N[C@@H](Cc1c[nH]c2ccccc12)C(=O)N[C@@H](C(=O)N[C@@H](Cc1c[nH]c2ccccc12)C(=O)N[C@@H](C(=O)N[C@@H](Cc1c[nH]c2ccccc12)C(=O)N[C@@H](C(=O)N[C@@H](Cc1c[nH]c2ccccc12)C(=O)NCCO)C(C)C)C(C)C)C(C)C)C(C)C)C(C)C` [compound 8796] (For-VGA[dL]A[dV]V[dL]W[dV]W[dV]W[dV]W-NHCH2CH2OH), the “H+/Na+ transport activity normalized” value in data set [1] is 1.15. Moreover, the cell viability/% in data set [2] stood at 74.1%. For the same compound, the antibacterial activity entry in data set [3] is given as “+”.

In the case of `CNC(=O)C[C@@H](NC(=O)[C@@H](NC(=O)[C@H](NC(=O)[C@H](C)NC(=O)[C@@H](CC(C)C)NC(=O)[C@H](C)NC(=O)CNC(=O)[C@@H](NC=O)C(C)C)C(C)C)C(C)C)C(=O)N[C@@H](Cc1c[nH]c2ccccc12)C(=O)N[C@H](CC(C)C)C(=O)N[C@@H](Cc1c[nH]c2ccccc12)C(=O)N[C@H](CC(C)C)C(=O)N[C@@H](Cc1c[nH]c2ccccc12)C(=O)N[C@@H](C(=O)N[C@@H](Cc1c[nH]c2ccccc12)C(=O)NCCO)C(C)C` [compound 8831] (For-VGA[dL]A[dV]V[dD](NHMe)W[dL]W[dL]W[dV]W-NHCH2CH2OH), in data set [1], the “H+/Na+ transport activity normalized” value came to 1.23. In data set [2], this compound gave a cell viability/% of 81.1%. Also, in data set [3], the antibacterial activity result is “-”.

Consider `CC(C)C[C@@H](NC(=O)[C@H](C)NC(=O)CNC(=O)[C@@H](NC=O)C(C)C)C(=O)N[C@@H](C)C(=O)N[C@H](CC(C)C)C(=O)N[C@H](C(=O)N[C@@H](C(=O)N[C@@H](Cc1c[nH]c2ccccc12)C(=O)N[C@@H](C(=O)N[C@@H](Cc1c[nH]c2ccccc12)C(=O)N[C@H](CC(C)C)C(=O)N[C@@H](Cc1c[nH]c2ccccc12)C(=O)N[C@H](CC(C)C)C(=O)N[C@@H](Cc1c[nH]c2ccccc12)C(=O)NCCO)C(C)C)C(C)C)C(C)C` [compound 8858] (For-VGA[dL]A[dL]V[dV]W[dV]W[dL]W[dL]W-NHCH2CH2OH), for which, in data set [1], the “H+/Na+ transport activity normalized” value is 1.05. This compound came in with a cell viability/% in data set [2] of 84.7%. The antibacterial activity result in data set [3] was “+”.
